Experimental data as given in BindingDB's records for doi:10.1016/j.bmcl.2006.01.011 (Purdue University, 2006).

Biological target: T1, Dimer of Gag-Pol polyprotein [501-599,Q508K,L534I,L564I,C568A,C596A] (Human immunodeficiency virus 1, UniProt P03367, C568A/C596A/L534I/L564I/Q508K)
T1 construct: 501-599
Test: Protease Inhibition Assay
Conditions: pH 6.4; 25 °C
Protocol: The Ki values were determined using fluorogenic substrate, 2-(aminobenzoyl)-Thr-Ile-Nle-Phe(p-NO2)-Gln-ArgNH2. A standard curve relating changes in fluorescent intensity to changes in concentration of product was used to convert fluorescent changes into molar velocities. The amount of cleavage was determined by HPLC.

Row | Compound | Ki
1 | CC(C)CN(C[C@@H](O)[C@H](Cc1ccccc1)NC(=O)O[C@H]1CO[C@H]2OCC[C@H]21)C1(C)C(=O)Nc2ccccc21 (stereo partly drawn) [(3R,3aS,6aR)-hexahydrofuro[2,3-b]furan-3-yl N-[(2S,3R)-3-hydroxy-4-[(3-methyl-2-oxo-2,3-dihydro-1H-indol-3-yl)(2-methylpropyl)amino]-1-phenylbutan-2-yl]carbamate] | 0.0045 µM
2 | CC(C)CN(C[C@@H](O)[C@H](Cc1ccccc1)NC(=O)O[C@H]1CO[C@H]2OCC[C@H]21)C1(C)C(=O)N(C)c2ccccc21 (stereo partly drawn) [(3R,3aS,6aR)-hexahydrofuro[2,3-b]furan-3-yl N-[(2S,3R)-4-[(1,3-dimethyl-2-oxo-2,3-dihydro-1H-indol-3-yl)(2-methylpropyl)amino]-3-hydroxy-1-phenylbutan-2-yl]carbamate] | 0.051 µM
3 | C=CCC1(N(CC(C)C)C[C@@H](O)[C@H](Cc2ccccc2)NC(=O)O[C@H]2CO[C@H]3OCC[C@H]32)C(=O)Nc2ccccc21 (stereo partly drawn) [(3R,3aS,6aR)-hexahydrofuro[2,3-b]furan-3-yl N-[(2S,3R)-3-hydroxy-4-[(2-methylpropyl)[2-oxo-3-(prop-2-en-1-yl)-2,3-dihydro-1H-indol-3-yl]amino]-1-phenylbutan-2-yl]carbamate] | 0.0045 µM
4 | O=C(N[C@@H](Cc1ccccc1)[C@H](O)CN1CC=CCCC12C(=O)Nc1ccccc12)O[C@H]1CO[C@H]2OCC[C@H]21 (stereo partly drawn) [(3R,3aS,6aR)-hexahydrofuro[2,3-b]furan-3-yl N-[(2S,3R)-4-{1',2',1,3,4,7-hexahydrospiro[azepine-2,3'-indole]-2'-one}-3-hydroxy-1-phenylbutan-2-yl]carbamate] | > 1 µM
5 | O=C(N[C@@H](Cc1ccccc1)[C@H](O)CN1CCCCCC12C(=O)Nc1ccccc12)O[C@H]1CO[C@H]2OCC[C@H]21 (stereo partly drawn) [(3R,3aS,6aR)-hexahydrofuro[2,3-b]furan-3-yl N-[(2S,3R)-4-{1',2'-dihydrospiro[azepane-2,3'-indole]-2'-one}-3-hydroxy-1-phenylbutan-2-yl]carbamate] | > 1 µM
6 | O=C(N[C@@H](Cc1ccccc1)[C@H](O)CN1CCCCC12C(=O)Nc1ccccc12)O[C@H]1CO[C@H]2OCC[C@H]21 (stereo partly drawn) [(3R,3aS,6aR)-hexahydrofuro[2,3-b]furan-3-yl N-[(2S,3R)-4-{1,2-dihydrospiro[indole-3,2'-piperidine]-2-one}-3-hydroxy-1-phenylbutan-2-yl]carbamate] | > 1 µM
7 | COc1ccc2c(c1)C(C)(N(CC(C)C)C[C@@H](O)[C@H](Cc1ccccc1)NC(=O)O[C@H]1CO[C@H]3OCC[C@H]31)C(=O)N2 (stereo partly drawn) [(3R,3aS,6aR)-hexahydrofuro[2,3-b]furan-3-yl N-[(2S,3R)-3-hydroxy-4-[(5-methoxy-3-methyl-2-oxo-2,3-dihydro-1H-indol-3-yl)(2-methylpropyl)amino]-1-phenylbutan-2-yl]carbamate] | 0.116 µM
